The subject of the test is HeLa. As to the kind of experiment: Cytotoxicity against human HeLa cells. Type of test: functional.
With `O=c1c(-c2ccccc2)coc2cc(OC/C(=N/O)c3ccc(F)cc3)ccc12`, the GC50 was 7.8 µM and the pGC50 is on record as 5.108.
Consider `CO/N=C(/COc1c(-c2ccccc2)oc2ccccc2c1=O)c1ccc(OC)cc1`, for which the GC50 came out at 2 µM and the pGC50 is 5.699.
Turning to `O=c1cc(-c2ccccc2)oc2cc(OC/C(=N/O)c3ccc(F)cc3)ccc12`, the GC50 was 2 µM and the pGC50 is given as 5.699.
For `COc1ccc(/C(COc2c(-c3ccccc3)oc3ccccc3c2=O)=N\O)cc1`, the GC50 is 2 µM and the pGC50 is listed as 5.699.
With `C/C(COc1ccc2oc(-c3ccccc3)cc(=O)c2c1)=N\O`, the GC50 is 1.2 µM and the pGC50 turned out to be 5.921.
With `CO/N=C(/COc1ccc2c(=O)c(-c3ccccc3)coc2c1)c1ccc(F)cc1`, the GC50 was 6.4 µM and the pGC50 is given as 5.194.
In turn, `O=c1cc(-c2ccccc2)oc2ccc(OC/C(=N/O)c3ccc(F)cc3)cc12` returned a GC50 of 1.6 µM and a pGC50 of 5.796.
For `COc1ccc(/C(COc2ccc3c(=O)cc(-c4ccccc4)oc3c2)=N\O)cc1`, the GC50 amounted to 2 µM and the pGC50 is 5.699.
The matching figures for `COc1ccc(/C(COc2ccc3oc(-c4ccccc4)cc(=O)c3c2)=N\O)cc1`: 1 µM and 6.
The matching figures for `C/C(COc1c(-c2ccccc2)oc2ccccc2c1=O)=N\O`: 2 µM and 5.699.
`CO/N=C(/COc1ccc2oc(-c3ccccc3)cc(=O)c2c1)c1ccc(OC)cc1` had a GC50 of 2 µM and a pGC50 of 5.699.
The compound `O=c1c(OC/C(=N/O)c2ccc(F)cc2)c(-c2ccccc2)oc2ccccc12` gave a GC50 of 2.1 µM and a pGC50 of 5.678.
Consider `CO/N=C(/COc1ccc2c(=O)cc(-c3ccccc3)oc2c1)c1ccc(F)cc1`, for which the GC50 was 2.7 µM and the pGC50 stood at 5.569.
In turn, `COc1ccc(/C(COc2ccc3c(=O)c(-c4ccccc4)coc3c2)=N\O)cc1` showed a GC50 of 7.6 µM and a pGC50 of 5.119.
Take `CO/N=C(/COc1c(-c2ccccc2)oc2ccccc2c1=O)c1ccc(F)cc1`: the GC50 worked out at 2 µM and the pGC50 worked out at 5.699.
For `CO/N=C(\C)COc1ccc2oc(-c3ccccc3)cc(=O)c2c1`, the GC50 stood at 0.9 µM and the pGC50 was determined as 6.046.
In the same order, the values of `CO/N=C(/COc1ccc2oc(-c3ccccc3)cc(=O)c2c1)c1ccccc1` are 2.4 µM and 5.62.
On to `O=c1c(-c2ccccc2)coc2cc(OC/C(=N/O)c3ccccc3)ccc12`, for which the GC50 was 9 µM and the pGC50 turned out to be 5.046.
The compound `O=c1cc(-c2ccccc2)oc2cc(OC/C(=N/O)c3ccccc3)ccc12` registered a GC50 of 2 µM and a pGC50 of 5.699.
As for `O=c1c(OC/C(=N/O)c2ccccc2)c(-c2ccccc2)oc2ccccc12`, the GC50 turned out to be 1.8 µM and the pGC50 is on record as 5.745.
In the same order, the values of `O=c1cc(-c2ccccc2)oc2ccc(OC/C(=N/O)c3ccccc3)cc12` are 0.8 µM and 6.097.
`CO/N=C(/COc1ccc2c(=O)c(-c3ccccc3)coc2c1)c1ccccc1`: the GC50 came to 8.2 µM and the pGC50 turned out to be 5.086.
In the same order, the values of `C/C(COc1ccc2c(=O)cc(-c3ccccc3)oc2c1)=N\O` are 2 µM and 5.699.
On to `CO/N=C(\C)COc1ccc2c(=O)cc(-c3ccccc3)oc2c1`, for which the GC50 was found to be 2.2 µM and the pGC50 turned out to be 5.658.
As to `CO/N=C(/COc1ccc2c(=O)c(-c3ccccc3)coc2c1)c1ccc(OC)cc1`, the GC50 stood at 7.3 µM and the pGC50 was found to be 5.137.
`CO/N=C(\C)COc1ccc2c(=O)c(-c3ccccc3)coc2c1` registered a GC50 of 8.5 µM and a pGC50 of 5.071.
`C/C(COc1ccc2c(=O)c(-c3ccccc3)coc2c1)=N\O` had a GC50 of 9.8 µM and a pGC50 of 5.009.
`CO/N=C(/COc1ccc2c(=O)cc(-c3ccccc3)oc2c1)c1ccccc1` had a GC50 of 6.6 µM and a pGC50 of 5.18.
Regarding `CO/N=C(/COc1ccc2oc(-c3ccccc3)cc(=O)c2c1)c1ccc(F)cc1`, the GC50 came to 2.3 µM and the pGC50 amounted to 5.638.
In the same order, the values of `CO/N=C(/COc1c(-c2ccccc2)oc2ccccc2c1=O)c1ccccc1` are 1.6 µM and 5.796.
Consider `CO/N=C(\C)COc1c(-c2ccccc2)oc2ccccc2c1=O`, for which the GC50 amounted to 2 µM and the pGC50 was found to be 5.699.
On to `CO/N=C(/COc1ccc2c(=O)cc(-c3ccccc3)oc2c1)c1ccc(OC)cc1`, for which the GC50 stood at 2.5 µM and the pGC50 stood at 5.602.

The values above are taken from ChEMBL document CHEMBL1140968, “QSAR, action mechanism and molecular design of flavone and isoflavone derivatives with cytotoxicity against HeLa” (2008).
